In brackets after ≈: the same amount, converted by molar mass.

In data set [1] the test system is E. coli (ATCC 25922). Description: Antibacterial microdilution MIC. Type of data set: cell-based. The following applies: Escherichia coli, ATCC25922; A: E. coli (ATCC 25922), Gram-negative; read-out: MIC. On the procedure: (§1) The antifungal and antibacterial activities of the synthesized compounds (5a–i) were evaluated in vitro against E. coli (ATCC 25922), S. marcescens (ATCC 8100), K. pneumoniae (ATCC 13883), P. aeruginosa (ATCC 27853), E. faecalis (ATCC 2942), B. subtilis, S. aureus (ATCC 29213), S. epidermidis (ATCC 12228), C. albicans (ATCC 24433), C. krusei (ATCC 6258), and C. parapsilosis (ATCC 22019). The final synthesized compounds were evaluated as antibacterial and antifungal references, in comparison to azithromycin, voriconazole, and fluconazole. Tables 1 and 2 provide a summary of the antimicrobial activity test results and the minimum inhibitory concentrations (MICs) of the compounds (5a–i).
(§2) The antimicrobial activity of the final compounds (5a–i) was screened against eight species of pathogenic bacteria and […] (E. coli (ATCC 25922), S. marcescens (ATCC 8100), K. pneumonia (ATCC 13883), P. aeruginosa (ATCC 27853), E. faecalis (ATCC 2942), B. subtilis (NRRL NRS 744), S. aureus (ATCC 29213), S. epidermidis (ATCC 12228), C. albicans (ATCC 24433), C. glabrata (ATCC 90030), C. krusei (ATCC 6258), and C. parapsilosis (ATCC 22 019)) according to the microdilution standard methods CLSI M07-A9 (2012) and NCCLS M27-A2 (2002), as described in the previous study.[25],[26]
Background: In broth dilution the organism is exposed to a series of concentrations in liquid medium.

In data set [2] the test system is E. faecalis (ATCC 2942). The data set can be described thus: Antibacterial microdilution MIC. It counts as cell-based. The following applies: Enterococcus faecalis, ATCC2942; E: E. faecalis (ATCC 2942), Gram-positive; read-out: MIC. How it is done:
as §1, §2

Data set [3] deals with S. epidermidis (ATCC 12228). The data set can be described thus: Antibacterial microdilution MIC. It counts as cell-based. The following applies: Staphylococcus epidermidis, ATCC12228; H: S. epidermidis (ATCC 12228), Gram-positive; read-out: MIC. How it is done: as §1, §2
The subject of data set [4] is K. pneumoniae (ATCC 13883). The data set can be described thus: Antibacterial microdilution MIC. It counts as cell-based. The following applies: Klebsiella pneumoniae, ATCC13883; C: K. pneumoniae (ATCC 13883), Gram-negative; read-out: MIC. How it is done:
as §1, §2

The test system of data set [5] is S. marcescens (ATCC 8100). Description: Antibacterial microdilution MIC. Type of data set: cell-based. The following applies: Serratia marcescens, ATCC8100; B: S. marcescens (ATCC 8100), Gram-negative; read-out: MIC. How it is done: as §1, §2
The subject of data set [6] is P. aeruginosa (ATCC 27853). The data set can be described thus: Antibacterial microdilution MIC. Type of data set: cell-based. The following applies: Pseudomonas aeruginosa, ATCC27853; D: P. aeruginosa (ATCC 27853), Gram-negative; read-out: MIC. How it is done:
as §1, §2

Data set [7] deals with S. aureus (ATCC 29213). Description: Antibacterial microdilution MIC. Type of data set: cell-based. The following applies: Staphylococcus aureus, ATCC29213; G: S. aureus (ATCC 29213), Gram-positive; read-out: MIC. How it is done:
as §1, §2

Data set [8] concerns B. subtilis. The data set can be described thus: Antibacterial microdilution MIC. The following applies: Bacillus subtilis; F: B. subtilis, Gram-positive; read-out: MIC. It counts as cell-based. On the procedure:
as §1, §2

The subject of data set [9] is C. krusei (ATCC 6258). The data set can be described thus: Antifungal microdilution MIC. Type of data set: cell-based. The following applies: Pichia kudriavzevii, ATCC6258; C. krusei (ATCC 6258); read-out: MIC. How it is done: as §1, §2
The test system of data set [10] is C. parapsilosis (ATCC 22019). Description: Antifungal microdilution MIC. The following applies: Lodderomyces parapsilosis, ATCC22019; C. parapsilosis (ATCC 22019); read-out: MIC. Type of data set: cell-based. How it is done:
as §1, §2

Data set [11] has as its system C. albicans (ATCC 24433). Description: Antifungal microdilution MIC. It counts as cell-based. The following applies: Candida albicans, ATCC24433; C. albicans (ATCC 24433); read-out: MIC. How it is done:
as §1, §2

Data set [12] deals with L929 fibroblast cell line. Description: Cytotoxicity MTT assay on healthy cells. Type of data set: cell-based. The following applies: L929 healthy mouse fibroblast cells. On the procedure: The effect of the compounds between 5a–i on the viability of the L929 cell line was analyzed by MTT assay. The MTT method was performed as previously described.[27]
A general note: Tetrazolium dyes change colour on reduction, which living cells bring about.

A word on the MIC: it is the lowest concentration found to suppress growth. The term melting point denotes the temperature of the solid-liquid transition. The IC50 is the concentration at which inhibition is half-maximal. Lower therefore signals inhibition by little substance. Consider `CC(C)Nc1nnc(-c2ccc(-c3nc4ccccc4[nH]3)cc2)s1` [Compound 5f, N-Isopropyl-5-(4-(1H-Benzo[d]imidazole-2-Yl)phenyl)-1,3,4-Thiadiazole-2-Amine], for which the melting point was 324.7 °C. The MIC in data set [1] turned out to be 125 µg/mL (≈ 373 µM). The MIC in data set [2] came to 3.9 µg/mL (≈ 11.6 µM). Moreover, the MIC in data set [3] is 3.9 µg/mL (≈ 11.6 µM). In [4], the MIC was determined as 125 µg/mL (≈ 373 µM). The MIC in data set [5] is 125 µg/mL (≈ 373 µM). Besides, the MIC in data set [6] worked out at 125 µg/mL (≈ 373 µM). In data set [7], the minimal inhibitory concentration (MIC) amounted to 62.5 µg/mL (≈ 186 µM). The minimal inhibitory concentration (MIC) in data set [8] came out at 125 µg/mL (≈ 373 µM). Besides, the MIC in data set [9] turned out to be 125 µg/mL (≈ 373 µM). Also, the MIC in [10] was 125 µg/mL (≈ 373 µM). In addition, the MIC in [11] amounted to 3.9 µg/mL (≈ 11.6 µM). The IC50 in [12] came out at 175 ± 3.02 µM.

Values taken from article PMC11044166, “Synthesis, DFT Calculations, In Silico Studies, and Antimicrobial Evaluation of Benzimidazole-Thiadiazole Derivatives” (ACS Omega, 2024).
